“And” between values parts separate entries of the source, which are not always exact repeats. Identical values can stand only once. Inconclusive results and toxic doses are left out.

In this assay the test system is BDF1 mice, P388 leukemia ip, median survival T/C. As to the kind of experiment: NCI In Vivo Anticancer Drug Screen. Data for tumor model P388 Leukemia (intraperitoneal) in B6D2F1 (BDF1) mice. The settings on record: endpoint: median survival time, higher = longer survival. Summed up: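 Antitumour effect was judged in vivo: survival in drug-treated mice, normalised to that of vehicle-dosed controls, gives the reported T/C.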

The mark [1] stands for this setting: dose: 100.0 mg/kg/injection, schedule: Q04DX003 (ip), vehicle: saline.
[2] abbreviates: dose: 200.0 mg/kg/injection, schedule: Q04DX003 (ip), vehicle: saline.
Where [3] appears, read: dose: 400.0 mg/kg/injection, schedule: Q04DX003 (ip), vehicle: saline.

On to `CC(=O)c1ccccc1OCC(O)CN1CCN(c2ccccc2Cl)CC1` (configuration not stated), for which the T/C reads like this: (dose: 37.5 mg/kg/injection, schedule: Q04DX003 (ip), vehicle: saline with Tween-80) 100 % of control; (dose: 75.0 mg/kg/injection, schedule: Q04DX003 (ip), vehicle: saline with Tween-80) 109 % of control; (dose: 150.0 mg/kg/injection, schedule: Q04DX003 (ip), vehicle: saline with Tween-80) 90 % of control.
With `CNC/C(C)=C/Br`, the T/C reads like this: (dose: 12.5 mg/kg/injection, schedule: Q01DX009 (ip), vehicle: acetone) 100 % of control; (dose: 18.75 mg/kg/injection, schedule: Q04DX003 (ip), vehicle: saline) 100 % of control; (dose: 25.0 mg/kg/injection, schedule: Q01DX009 (ip), vehicle: acetone) 104 % of control; (dose: 37.5 mg/kg/injection, schedule: Q04DX003 (ip), vehicle: saline) 104 % of control; (dose: 50.0 mg/kg/injection, schedule: Q01DX009 (ip), vehicle: acetone) 104 % of control; (dose: 50.0 mg/kg/injection, schedule: Q01DX009 (ip), vehicle: saline) 100 % of control. In addition, the T/C (dose: 63.75 mg/kg/injection, schedule: Q01DX001 (ip), vehicle: saline) is 100 % of control; the T/C (dose: 75.0 mg/kg/injection, schedule: Q01DX009 (ip), vehicle: saline) was 95 % of control; the T/C (dose: 75.0 mg/kg/injection, schedule: Q04DX003 (ip), vehicle: saline) is 95 % of control; the T/C (dose: 100.0 mg/kg/injection, schedule: Q01DX009 (ip), vehicle: saline) was 115 % of control; the T/C (dose: 110.0 mg/kg/injection, schedule: Q04DX003 (ip), vehicle: saline) was 110 % of control; the T/C (dose: 127.5 mg/kg/injection, schedule: Q01DX001 (ip), vehicle: saline) was 100 % of control. Besides, the T/C is 110 % of control (dose: 170.0 mg/kg/injection, schedule: Q04DX003 (ip), vehicle: saline); 105 % of control (dose: 200.0 mg/kg/injection, schedule: Q01DX009 (ip), vehicle: saline); 105 % of control (dose: 255.0 mg/kg/injection, schedule: Q04DX003 (ip), vehicle: saline).
For `CC(C)CC(NC(=O)C(O)C(N)Cc1ccccc1)C(=O)O` (configuration not stated), the T/C is 94 % of control and 98 % of control (dose: 37.5 mg/kg/injection, schedule: Q01DX009 (ip), vehicle: saline with Tween-80); 95 % of control and 98 % of control (dose: 75.0 mg/kg/injection, schedule: Q01DX009 (ip), vehicle: saline with Tween-80); 95 % of control and 100 % of control (dose: 150.0 mg/kg/injection, schedule: Q01DX009 (ip), vehicle: saline with Tween-80).
In the case of `O=C(Cn1ccc(=O)[nH]c1=O)N1CCC2(CC1)SSC1(CCN(C(=O)Cn3ccc(=O)[nH]c3=O)CC1)S2`, the T/C reads like this: under setting [1], 100 % of control; under setting [2], 109 % of control; under setting [3], 90 % of control.
Take `CCOc1ccc(S(=O)(=O)O)c2cccnc12`: the T/C is 105 % of control under setting [1], 105 % of control under setting [2] and 105 % of control under setting [3].
Take `Cc1cc(C(C)(C)CC(C)(C)C)ccc1O`: the T/C is 100 % of control (dose: 88.0 mg/kg/injection, schedule: Q01DX009 (sc), vehicle: olive oil, sesame oil, peanut oil); 100 % of control (dose: 100.0 mg/kg/injection, schedule: Q01DX009 (sc), vehicle: olive oil, sesame oil, peanut oil); 91 % of control (dose: 100.0 mg/kg/injection, schedule: Q04DX003 (sc), vehicle: olive oil, sesame oil, peanut oil); 92 % of control (dose: 133.0 mg/kg/injection, schedule: Q01DX009 (sc), vehicle: olive oil, sesame oil, peanut oil); 86 % of control (dose: 200.0 mg/kg/injection, schedule: Q01DX009 (sc), vehicle: olive oil, sesame oil, peanut oil); 100 % of control (dose: 200.0 mg/kg/injection, schedule: Q04DX003 (sc), vehicle: olive oil, sesame oil, peanut oil). Moreover, the T/C is 106 % of control (dose: 300.0 mg/kg/injection, schedule: Q01DX009 (sc), vehicle: olive oil, sesame oil, peanut oil); 110 % of control (dose: 400.0 mg/kg/injection, schedule: Q01DX009 (sc), vehicle: olive oil, sesame oil, peanut oil); 104 % of control (dose: 400.0 mg/kg/injection, schedule: Q04DX003 (sc), vehicle: olive oil, sesame oil, peanut oil).
For `C/C(N=Nc1ccccc1)=N\Nc1cccc(C(F)(F)F)c1`, the T/C runs as follows: (dose: 50.0 mg/kg/injection, schedule: Q01DX009 (ip), vehicle: Klucel (hydroxypropylcellulose) (HPC)) 100 % of control; (dose: 100.0 mg/kg/injection, schedule: Q01DX009 (ip), vehicle: Klucel (hydroxypropylcellulose) (HPC)) 105 % of control; (dose: 100.0 mg/kg/injection, schedule: Q04DX003 (ip), vehicle: Klucel (hydroxypropylcellulose) (HPC)) 104 % of control; (dose: 200.0 mg/kg/injection, schedule: Q01DX009 (ip), vehicle: Klucel (hydroxypropylcellulose) (HPC)) 100 % of control; (dose: 200.0 mg/kg/injection, schedule: Q04DX003 (ip), vehicle: Klucel (hydroxypropylcellulose) (HPC)) 104 % of control; (dose: 400.0 mg/kg/injection, schedule: Q04DX003 (ip), vehicle: Klucel (hydroxypropylcellulose) (HPC)) 108 % of control.
On to `CC[C@H]1CN2CCc3cc(OC)c(OC)cc3[C@@H]2C[C@@H]1C[C@H]1NCCc2cc(OC)c(OC)cc21`, for which the T/C runs as follows: (dose: 2.0 mg/kg/injection, schedule: Q01DX005 (ip), vehicle: saline) 150 % of control; (dose: 2.0 mg/kg/injection, schedule: Q01DX009 (ip), vehicle: saline) 150 % of control; (dose: 3.0 mg/kg/injection, schedule: Q01DX009 (oral), vehicle: saline) 90 % of control; (dose: 3.5 mg/kg/injection, schedule: Q01DX010 (ip), vehicle: saline) 154 % of control and 160 % of control; (dose: 4.0 mg/kg/injection, schedule: Q01DX005 (ip), vehicle: saline) 175 % of control; (dose: 4.0 mg/kg/injection, schedule: Q01DX009 (ip), vehicle: saline) 220 % of control. Besides, the T/C was 103 % of control (dose: 4.0 mg/kg/injection, schedule: Q04DX003 (ip), vehicle: saline); 115 % of control (dose: 4.0 mg/kg/injection, schedule: Q## X003 (ip), vehicle: saline); 86 % of control (dose: 6.0 mg/kg/injection, schedule: Q01DX009 (oral), vehicle: saline); 222 % of control (dose: 7.0 mg/kg/injection, schedule: Q01DX010 (ip), vehicle: saline); 160 % of control (dose: 7.78 mg/kg/injection, schedule: Q04DX003 (ip), vehicle: saline); 90 % of control (dose: 8.0 mg/kg/injection, schedule: Q01DX005 (ip), vehicle: saline). Moreover, the T/C (dose: 8.0 mg/kg/injection, schedule: Q04DX003 (ip), vehicle: saline) was 163 % of control; the T/C (dose: 8.0 mg/kg/injection, schedule: Q## X002 (ip), vehicle: saline) is 115 % of control; the T/C (dose: 8.0 mg/kg/injection, schedule: Q## X003 (ip), vehicle: saline) was 150 % of control; the T/C (dose: 13.0 mg/kg/injection, schedule: Q04DX003 (ip), vehicle: saline) is 151 % of control and 158 % of control and 192 % of control; the T/C (dose: 16.0 mg/kg/injection, schedule: Q04DX003 (ip), vehicle: saline) is 232 % of control; the T/C (dose: 16.0 mg/kg/injection, schedule: Q## X002 (ip), vehicle: saline) is 165 % of control. Further, the T/C (dose: 16.0 mg/kg/injection, schedule: Q## X003 (ip), vehicle: saline) was 185 % of control; the T/C (dose: 16.0 mg/kg/injection, schedule: Q## X008 (ip), vehicle: saline) is 160 % of control; the T/C (dose: 16.0 mg/kg/injection, schedule: Q## X016 (ip), vehicle: saline) is 165 % of control; the T/C (dose: 16.0 mg/kg/injection, schedule: Q## X024 (ip), vehicle: saline) was 215 % of control; the T/C (dose: 18.0 mg/kg/injection, schedule: Q04DX003 (ip), vehicle: saline) is 185 % of control; the T/C (dose: 21.6 mg/kg/injection, schedule: Q04DX003 (ip), vehicle: saline) was 225 % of control and 235 % of control and 239 % of control. Besides, the T/C is, setting by setting: (dose: 32.0 mg/kg/injection, schedule: Q01DX001 (ip), vehicle: saline) 150 % of control; (dose: 32.0 mg/kg/injection, schedule: Q## X002 (ip), vehicle: saline) 210 % of control; (dose: 32.0 mg/kg/injection, schedule: Q## X003 (ip), vehicle: saline) 90 % of control; (dose: 32.0 mg/kg/injection, schedule: Q## X016 (ip), vehicle: saline) 150 % of control.
Take `O=C1Cc2ccc3c(c2O1)C(=O)c1ccccc1C3=O`: the T/C by setting is: (dose: 100.0 mg/kg/injection, schedule: Q04DX002 (ip), vehicle: saline with Tween-80) 106 % of control; (dose: 200.0 mg/kg/injection, schedule: Q04DX002 (ip), vehicle: saline with Tween-80) 100 % of control.
